In brackets after ≈: the same amount, converted by molar mass.

The conditions of the data set: buffer; pH 7.4; 200.0 µM.
A word on the kinetic solubility: it is the concentration staying in solution when a stock, usually in DMSO, is diluted into the medium. Regarding `O=C(O)C1CCCN1C(=O)NC1CCCCC1` (centres undefined), the kinetic solubility turned out to be 30.4 µg/mL (≈ 127 µM).
The value for `Cc1cccc[n+]1CC(=O)c1ccc(Cl)cc1.[Cl-]` was 32.9 µg/mL.
The molecule `Cc1ccccc1CCNCc1cc2cccc(C)c2[nH]c1=O` displayed a solubility (kinetic) of over 46 µg/mL.
On to `C[N+](C)(C)CC(O)CC(=O)O.[Cl-]` (centres undefined), for which the solubility (kinetic) is over 29.6 µg/mL.
The value for `COc1ccc(NC(=O)CSc2nc(C)cs2)c([N+](=O)[O-])c1` was 45.1 µg/mL (≈ 133 µM).
Molecule `COc1ccc(-n2nc(C)c3sc(C)nc3c2=O)cc1` registered a solubility (kinetic) of over 43.1 µg/mL.
Molecule `Cc1ccc(C)c(S(=O)(=O)N2CCCN(C)CC2)c1` showed a kinetic solubility of over 42.4 µg/mL.
The value for `CCc1sc(C(=O)Nc2cccnc2)cc1Br` was 3.9 µg/mL (≈ 12.5 µM); that for `Cc1ccc(S(=O)(=O)N2CCOCC2)cc1NC(=O)Nc1ccc([N+](=O)[O-])cc1` was 1.8 µg/mL (≈ 4.28 µM); that for `COc1ccc(CCNC(=O)Cc2ccsc2)cc1` was over 41.3 µg/mL.
`CCCCc1cc(C)c(S(=O)(=O)c2ccccc2C)c(=O)[nH]1` came in with a solubility (kinetic) of 3.8 µg/mL (≈ 11.9 µM).
The value for `O=C1c2ccccc2CN1c1ccccc1` was 12.4 µg/mL (≈ 59.3 µM); that for `COC(=O)NC1c2ccccc2Oc2ccc(C)cc21` (centres undefined) was under 0.6 µg/mL; that for `NC(=O)c1ccsc1NC(=O)Cc1ccc([N+](=O)[O-])cc1` was 12 µg/mL (≈ 39.3 µM).
Take `Cc1c(C)n(C)c2ccc(C(=O)NCCCN3CCCC3)cc12`: the solubility (kinetic) was over 47 µg/mL.
`COc1cc(OC)c(NC(C)C(=O)N2CCCC2)cc1Cl` (centres undefined) gave a solubility (kinetic) of 45.1 µg/mL (≈ 144 µM).
The molecule `S=c1[nH]c2cnccc2n1Cc1ccccc1` showed a solubility (kinetic) of 5.7 µg/mL (≈ 23.6 µM).
Molecule `O=C(O)c1ccc(Cl)c(S(=O)(=O)Nc2ccc(S(=O)(=O)N3CCCC3)cc2)c1` returned a kinetic solubility of over 66.7 µg/mL.
The value for `COc1nc(-c2ccccc2)c2cc(C)ccc2n1` was 15.4 µg/mL (≈ 61.5 µM); that for `CCN(c1ccccc1)S(=O)(=O)c1cc(C(=O)NCC(c2ccco2)N2CCCCC2)ccc1C` (centres undefined) was 18.2 µg/mL (≈ 36.7 µM); that for `COc1cc2c(C(=O)O)c(C)n(C)c2c2ccccc12` was 7.4 µg/mL (≈ 27.5 µM).
The same measure for `CCNC(=O)C(=O)Nc1cc2c3c(c1)CCC(=O)N3CCC2`: over 45.2 µg/mL; for `Cc1cccc(OCCCN2CCOCC2)c1C`: 25.4 µg/mL (≈ 102 µM); for `O=C(NC(=S)NC1CCSC1=O)c1ccc([N+](=O)[O-])cc1` (centres undefined): 40.6 µg/mL (≈ 125 µM).
`COc1ccc(Nc2cc(C)c3c(O)cccc3n2)cc1` came in with a kinetic solubility of 22.1 µg/mL (≈ 78.8 µM).
The value for `O=c1[nH]c(N2CCOCC2)nc2ccccc12` was over 34.7 µg/mL; that for `CC1(C)CC(=O)C2=C(C1)OC(N)=C([N+](=O)[O-])C2c1ccc(F)cc1` (centres undefined) was over 49.8 µg/mL.
The same measure for `O=C(OCC(=O)N1CCOCC1)c1cc(-c2ccccc2)nc2ccccc12`: 53.4 µg/mL (≈ 142 µM); for `N#Cc1c(N)n(-c2ccc(C(=O)O)cc2)c2nc3ccccc3nc12`: 28.5 µg/mL (≈ 86.5 µM).
Take `CCc1ccccc1NC(=O)CCS(=O)(=O)c1ccc(C)cc1`: the kinetic solubility is over 49.7 µg/mL.
The molecule `COC(=O)/C=C/c1cnc2ccccc2c1` yielded a solubility (kinetic) of over 32 µg/mL.
`COC(=O)c1sccc1NC(=S)OC` gave a kinetic solubility of 6.1 µg/mL (≈ 26.4 µM).
The value for `Cc1ccc(NC(=O)CNC(=O)c2ccco2)c(Cl)c1` was over 43.9 µg/mL.
Regarding `CC(C)(C)C(=O)Nc1cccc(-c2ncon2)c1`, the kinetic solubility is over 36.8 µg/mL.
The value for `Cc1ccc(CNC(=O)C(c2ccccc2)c2ccccc2)cc1` was under 0.7 µg/mL; that for `O=C(CNC(=O)OCc1ccccc1)Nc1ccc(F)cc1` was 10.3 µg/mL (≈ 34.1 µM); that for `CCO.N#CC1=C(N)Oc2c(oc(CO)cc2=O)C1c1ccccc1[N+](=O)[O-]` (centres undefined) was 45.9 µg/mL.
`COC(=O)c1ccc(S(=O)(=O)NCc2ccco2)o1` yielded a kinetic solubility of 38.8 µg/mL (≈ 136 µM).
The value for `COc1cccc(/C=C2\SC(=S)N(c3cccnc3)C2=O)c1OC` was under 0.4 µg/mL.
The value for `Fc1ccc2[nH]c3c(c2c1)CN(C(=S)NCc1ccccc1)CC3` was 5 µg/mL (≈ 14.7 µM); that for `O=C(Nc1ccc(S(=O)(=O)NC2=NCCCCC2)cc1)c1cccc(S(=O)(=O)N2CCOCC2)c1` was 51.5 µg/mL (≈ 98.9 µM).
The same measure for `CN1C(=O)C(=O)/C(=C(/O)c2ccccc2)C1c1ccccc1` (centres undefined): over 44 µg/mL.
`O=C(Nc1cccnc1Cl)c1cccc(F)c1` yielded a solubility (kinetic) of 36.1 µg/mL (≈ 144 µM).
The value for `O=C(Nc1ccccn1)Nc1ccccc1[N+](=O)[O-]` was 2.9 µg/mL (≈ 11.2 µM).
The value for `O=C(COc1ccc(S(=O)(=O)N2CCOCC2)cc1)NC1CC1` was over 51.1 µg/mL; that for `O=[N+]([O-])c1ccc(O)c(C(C#Cc2ccccc2)N2CCOCC2)c1` (centres undefined) was 12.9 µg/mL (≈ 38.1 µM).
The same measure for `O=C(COC(=O)C1CCC(=O)N1)Nc1ccccc1OC(F)F` (centres undefined): over 49.2 µg/mL; for `Cc1ccsc1CNCCc1ccc(F)cc1`: 27.1 µg/mL (≈ 109 µM).
The molecule `O=C(COC(=O)c1ccc(Cl)nc1)Nc1ccc(Cl)cc1` gave a solubility (kinetic) of 6.4 µg/mL (≈ 19.7 µM).
The value for `Cc1ccccc1CC(=O)N1CCCc2ccccc21` was 36.5 µg/mL (≈ 138 µM); that for `COc1ccccc1/C=N/OCc1ccc(C#N)cc1` was 0.9 µg/mL (≈ 3.38 µM).
The value for `COc1ccc(/C=C(\C#N)C(=O)OC2CCOC2=O)cc1` (centres undefined) was over 43.1 µg/mL; that for `Cc1cc2c(Nc3ccc(O)cc3)ncnc2s1.Cl` was over 44.1 µg/mL; that for `CCC(=O)Nc1cc2[nH]c(=O)cc(C)c2cc1C` was 33.4 µg/mL (≈ 137 µM).
The same measure for `O=C(COC(=O)CNC(=O)c1ccccc1)NCCCc1ccccc1`: 52.3 µg/mL (≈ 148 µM); for `Cc1ccccc1/C=C/C12NC(=O)CN1c1ccccc1C2(C)C` (centres undefined): 1 µg/mL (≈ 3.14 µM).
The molecule `O=C1Nc2ccccc2Nc2ccc([N+](=O)[O-])cc21` returned a kinetic solubility of 1.1 µg/mL (≈ 4.31 µM).
For the molecule `Cc1ccc2oc(C(=O)NCCC3CCCCO3)c(C)c2c1` (centres undefined), the solubility (kinetic) came out at 43.1 µg/mL (≈ 143 µM).
As for `CCc1ccc(C(=O)COC(=O)C2=NN(c3ccccc3)C(=O)CC2)cc1`, the kinetic solubility was over 54.7 µg/mL.
The value for `COc1ccc2ccccc2c1CNC(C)c1ccccc1.O=C(O)C(=O)O` (centres undefined) was over 57.2 µg/mL.
In turn, `Cl.c1ccc(CCNCc2cccs2)cc1` gave a kinetic solubility of 32.6 µg/mL.
The same measure for `CC1(C)C(=O)Nc2ccccc2N1C(=O)COc1ccccc1C#N`: 21.5 µg/mL (≈ 64.1 µM); for `NC1=Nc2cccc3cccc1c23`: 23.2 µg/mL (≈ 138 µM); for `COc1ccccc1N(Cc1cc(=O)[nH]c2ccccc12)C(C)=O`: over 48.4 µg/mL.
The molecule `Cc1cccc(C(=O)Nc2cccc3c2CCCC3)c1` came in with a kinetic solubility of 0.8 µg/mL (≈ 3.01 µM).
As for `COC(=O)c1cc(Nc2cc(C)c3c(O)cccc3n2)cc(C(=O)OC)c1`, the kinetic solubility was under 0.4 µg/mL.
The value for `Nc1ccccc1C#Cc1ccc([N+](=O)[O-])cc1` was 1.1 µg/mL (≈ 4.62 µM); that for `CC(C)(C)c1ccc(OCC(O)CN2CCc3ccccc3C2)cc1.Cl` (centres undefined) was 11.7 µg/mL.
Regarding `Cc1ccc(NC(=O)Nc2cnccn2)c(C)c1`, the kinetic solubility turned out to be 2.2 µg/mL (≈ 9.08 µM).
The same measure for `COc1ccc(NC(=O)C(CC(=O)O)Cc2ccc(Cl)cc2)cc1` (centres undefined): over 52.2 µg/mL.
`CCNC(=O)CC1C(=O)N(c2ccc(C)cc2)C(=O)N1CCOC` (centres undefined) gave a solubility (kinetic) of over 50 µg/mL.
The value for `O=C(OCC(=O)C12CC3CC(CC(C3)C1)C2)c1ccccn1` was over 44.9 µg/mL; that for `Cc1ccc(S(=O)(=O)N2CCN(C(=O)Cn3c(=O)oc4ccccc43)CC2)cc1` was 12.7 µg/mL (≈ 30.6 µM); that for `COCCCNC(=S)Nc1cccc2ncccc12` was 40.9 µg/mL (≈ 149 µM).

The record behind these values is PubChem BioAssay AID1996.
